Drawing on ChEMBL document CHEMBL1697731, “Cheminformatics analysis of assertions mined from literature that describe drug-induced liver injury in different species” (Chem Res Toxicol, 2010), this text covers Hepatotoxicity for 31 molecules.

Data set [1] concerns Hepatotoxicity. Briefly: Literature-mined compound from Fourches et al multi-species drug-induced liver injury (DILI) dataset, effect in humans. Conditions: human.
In data set [2] the test system is Hepatotoxicity. Nature of the data set: Literature-mined compound from Fourches et al multi-species drug-induced liver injury (DILI) dataset, effect in non-rodents.
The test system of data set [3] is Hepatotoxicity. Briefly: Literature-mined compound from Fourches et al multi-species drug-induced liver injury (DILI) dataset, effect in rodents. The note with it: rodentia.

Take `CC1(C)S[C@@H]2[C@H](NC(=O)C(C(=O)[O-])c3ccccc3)C(=O)N2[C@H]1C(=O)[O-].[Na+].[Na+]` (stereo partly drawn) [CARBENICILLIN DISODIUM]: the Hepatotoxicity entry with Hepatotoxicity [1] is “drug-induced liver injury reported”; in the data set with Hepatotoxicity [2], “no drug-induced liver injury reported”; in the data set with Hepatotoxicity [3] it was “no drug-induced liver injury reported”.
Take `CC1(C)[C@@H](OC(=O)CCC(=O)O)CC[C@]2(C)[C@H]3C(=O)C=C4[C@@H]5C[C@@](C)(C(=O)O)CC[C@]5(C)CC[C@@]4(C)[C@]3(C)CC[C@@H]12` [CARBENOXOLONE]: the Hepatotoxicity entry is “no drug-induced liver injury reported” in the data set on Hepatotoxicity [1], “no drug-induced liver injury reported” in the data set on Hepatotoxicity [2] and “drug-induced liver injury reported” in the data set with Hepatotoxicity [3].
For `CCOC(=O)n1ccn(C)c1=S` [CARBIMAZOLE], the Hepatotoxicity entry in the data set on Hepatotoxicity [1] is given as “drug-induced liver injury reported”; in the data set with Hepatotoxicity [2], “no drug-induced liver injury reported”; in the data set with Hepatotoxicity [3], “no drug-induced liver injury reported”.
As for `CCCCNC(=O)NS(=O)(=O)c1ccc(N)cc1` [CARBUTAMIDE], the figures for the Hepatotoxicity entry with Hepatotoxicity [1], in the data set on Hepatotoxicity [2] and with Hepatotoxicity [3] were “no drug-induced liver injury reported”, “no drug-induced liver injury reported” and “drug-induced liver injury reported”, respectively.
In the case of `CC(C)c1ccc(C(=O)NC(=N)N)cc1S(C)(=O)=O` [CARIPORIDE], the results for the Hepatotoxicity entry in the data set on Hepatotoxicity [1], in the data set with Hepatotoxicity [2] and in the data set on Hepatotoxicity [3] were “no drug-induced liver injury reported”, “no drug-induced liver injury reported” and “drug-induced liver injury reported”, respectively.
Take `CCCC(C)(COC(N)=O)COC(=O)NC(C)C` (stereo not drawn) [CARISOPRODOL]: the Hepatotoxicity entry in the data set with Hepatotoxicity [1] is listed as “no drug-induced liver injury reported”; in the data set on Hepatotoxicity [2] it was “no drug-induced liver injury reported”; with Hepatotoxicity [3] it was “drug-induced liver injury reported”.
As for `O=NN(CCCl)C(=O)NCCCl` [CARMUSTINE], the Hepatotoxicity entry in the data set with Hepatotoxicity [1] is recorded as “drug-induced liver injury reported”; with Hepatotoxicity [2], “no drug-induced liver injury reported”; with Hepatotoxicity [3], “drug-induced liver injury reported”.
As to `C[N+](C)(C)CC(O)CC(=O)[O-]` (stereo not drawn) [CARNITINE], the Hepatotoxicity result with Hepatotoxicity [1], in the data set with Hepatotoxicity [2] and in the data set on Hepatotoxicity [3] was “drug-induced liver injury reported” in each case.
`CC(C(=O)O)c1ccc2c(c1)[nH]c1ccc(Cl)cc12` (stereo not drawn) [CARPROFEN]: the Hepatotoxicity entry in the data set on Hepatotoxicity [1] is reported as “no drug-induced liver injury reported”; in the data set on Hepatotoxicity [2], “drug-induced liver injury reported”; with Hepatotoxicity [3], “no drug-induced liver injury reported”.
In the case of `COc1ccccc1OCCNCC(O)COc1cccc2[nH]c3ccccc3c12` (stereo not drawn) [CARVEDILOL], the figures for the Hepatotoxicity result in the data set on Hepatotoxicity [1], in the data set with Hepatotoxicity [2] and with Hepatotoxicity [3] were “drug-induced liver injury reported”, “no drug-induced liver injury reported” and “drug-induced liver injury reported”, respectively.
For the molecule `Oc1cc(O)c2c(c1)O[C@H](c1ccc(O)c(O)c1)[C@@H](O)C2` [CATECHIN], the Hepatotoxicity entry in the data set with Hepatotoxicity [1], with Hepatotoxicity [2] and in the data set with Hepatotoxicity [3] was “drug-induced liver injury reported” each time.
Take `N[C@@H](C(=O)N[C@@H]1C(=O)N2C(C(=O)O)=C(Cl)CS[C@H]12)c1ccccc1` [CEFACLOR ANHYDROUS]: the Hepatotoxicity entry in the data set on Hepatotoxicity [1] is given as “drug-induced liver injury reported”; in the data set on Hepatotoxicity [2] it was “no drug-induced liver injury reported”; in the data set with Hepatotoxicity [3], “no drug-induced liver injury reported”.
For `CC1=C(C(=O)O)N2C(=O)[C@@H](NC(=O)[C@H](N)c3ccc(O)cc3)[C@H]2SC1` [CEFADROXIL], the Hepatotoxicity result in the data set on Hepatotoxicity [1] is on record as “drug-induced liver injury reported”; with Hepatotoxicity [2], “no drug-induced liver injury reported”; in the data set on Hepatotoxicity [3] it was “no drug-induced liver injury reported”.
On to `Cc1nnc(SCC2=C(C(=O)O)N3C(=O)[C@@H](NC(=O)Cn4cnnn4)[C@H]3SC2)s1` [CEFAZOLIN], for which the Hepatotoxicity result in the data set with Hepatotoxicity [1] was “drug-induced liver injury reported”; with Hepatotoxicity [2] it was “no drug-induced liver injury reported”; with Hepatotoxicity [3], “drug-induced liver injury reported”.
With `C=CC1=C(C(=O)O)N2C(=O)[C@@H](NC(=O)/C(=N\OCC(=O)O)c3csc(N)n3)[C@H]2SC1` [CEFIXIME], the Hepatotoxicity result with Hepatotoxicity [1] is on record as “drug-induced liver injury reported”; in the data set with Hepatotoxicity [2], “no drug-induced liver injury reported”; in the data set on Hepatotoxicity [3], “no drug-induced liver injury reported”.
Consider `CCN1CCN(C(=O)N[C@@H](C(=O)N[C@@H]2C(=O)N3C(C(=O)O)=C(CSc4nnnn4C)CS[C@H]23)c2ccc(O)cc2)C(=O)C1=O` [CEFOPERAZONE], for which the Hepatotoxicity entry is “drug-induced liver injury reported” in the data set on Hepatotoxicity [1], “no drug-induced liver injury reported” in the data set with Hepatotoxicity [2] and “drug-induced liver injury reported” in the data set with Hepatotoxicity [3].
On to `CO/N=C(\C(=O)N[C@@H]1C(=O)N2C(C(=O)O)=C(COC(C)=O)CS[C@H]12)c1csc(N)n1` [CEFOTAXIME], for which the Hepatotoxicity result in the data set on Hepatotoxicity [1] was “drug-induced liver injury reported”; with Hepatotoxicity [2], “no drug-induced liver injury reported”; with Hepatotoxicity [3], “no drug-induced liver injury reported”.
On to `CO[C@@]1(NC(=O)C2SC(=C(C(N)=O)C(=O)O)S2)C(=O)N2C(C(=O)O)=C(CSc3nnnn3C)CS[C@@H]21` (stereo partly drawn) [CEFOTETAN], for which the Hepatotoxicity result with Hepatotoxicity [1] is on record as “drug-induced liver injury reported”; in the data set with Hepatotoxicity [2], “no drug-induced liver injury reported”; in the data set with Hepatotoxicity [3], “no drug-induced liver injury reported”.
As for `CC=CC1=C(C(=O)O)N2C(=O)[C@@H](NC(=O)[C@H](N)c3ccc(O)cc3)[C@H]2SC1` [CEFPROZIL], the Hepatotoxicity result with Hepatotoxicity [1] was “drug-induced liver injury reported”; in the data set with Hepatotoxicity [2], “no drug-induced liver injury reported”; in the data set on Hepatotoxicity [3], “no drug-induced liver injury reported”.
Turning to `CO/N=C(\C(=O)N[C@@H]1C(=O)N2C(C(=O)O)=C(CSc3nc(=O)c(=O)[nH]n3C)CS[C@H]12)c1csc(N)n1` [CEFTRIAXONE], the Hepatotoxicity entry in the data set with Hepatotoxicity [1], in the data set with Hepatotoxicity [2] and with Hepatotoxicity [3] was “drug-induced liver injury reported” throughout.
Consider `Cc1ccc(-c2cc(C(F)(F)F)nn2-c2ccc(S(N)(=O)=O)cc2)cc1` [CELECOXIB], for which the figures for the Hepatotoxicity entry in the data set on Hepatotoxicity [1] (Liver), in the data set with Hepatotoxicity [2] (Liver) and in the data set with Hepatotoxicity [3] (Liver) were “drug-induced liver injury reported”, “no drug-induced liver injury reported” and “drug-induced liver injury reported”, respectively.
As to `O=C(Cc1cccs1)N[C@@H]1C(=O)N2C(C(=O)[O-])=C(C[n+]3ccccc3)CS[C@H]12` [CEPHALORIDINE], the figures for the Hepatotoxicity entry with Hepatotoxicity [1], in the data set with Hepatotoxicity [2] and in the data set on Hepatotoxicity [3] were “drug-induced liver injury reported”, “no drug-induced liver injury reported” and “no drug-induced liver injury reported”, respectively.
For the molecule `CC(=O)OCC1=C(C(=O)O)N2C(=O)[C@@H](NC(=O)Cc3cccs3)[C@H]2SC1` [CEPHALOTHIN], the Hepatotoxicity entry with Hepatotoxicity [1] is recorded as “drug-induced liver injury reported”; in the data set on Hepatotoxicity [2] it was “no drug-induced liver injury reported”; in the data set with Hepatotoxicity [3], “no drug-induced liver injury reported”.
For the molecule `COCc1c(C(C)C)nc(C(C)C)c(/C=C/[C@@H](O)C[C@@H](O)CC(=O)[O-])c1-c1ccc(F)cc1.[Na+]` [CERIVASTATIN SODIUM], the Hepatotoxicity result in the data set on Hepatotoxicity [1] was “no drug-induced liver injury reported”; in the data set on Hepatotoxicity [2] it was “drug-induced liver injury reported”; in the data set with Hepatotoxicity [3], “drug-induced liver injury reported”.
Consider `COCc1c(C(C)C)nc(C(C)C)c(/C=C/[C@@H](O)C[C@@H](O)CC(=O)O)c1-c1ccc(F)cc1` [CERIVASTATIN], for which the Hepatotoxicity result with Hepatotoxicity [1], with Hepatotoxicity [2] and with Hepatotoxicity [3] was “drug-induced liver injury reported” throughout.
`O=C(O)COCCN1CCN(C(c2ccccc2)c2ccc(Cl)cc2)CC1` (stereo not drawn) [CETIRIZINE]: the figures for the Hepatotoxicity entry in the data set on Hepatotoxicity [1] (Liver), in the data set on Hepatotoxicity [2] (Liver) and in the data set on Hepatotoxicity [3] (Liver) were “drug-induced liver injury reported”, “no drug-induced liver injury reported” and “no drug-induced liver injury reported”, respectively.
Consider `C[C@H](CCC(=O)O)[C@H]1CC[C@H]2[C@@H]3[C@H](O)C[C@@H]4C[C@H](O)CC[C@]4(C)[C@H]3CC[C@]12C` [CHENODIOL], for which the Hepatotoxicity entry in the data set with Hepatotoxicity [1], in the data set with Hepatotoxicity [2] and in the data set on Hepatotoxicity [3] was “drug-induced liver injury reported” each time.
In the case of `OC(O)C(Cl)(Cl)Cl` [CHLORAL HYDRATE], the Hepatotoxicity result is on record as “drug-induced liver injury reported” with Hepatotoxicity [1] (Liver), “no drug-induced liver injury reported” with Hepatotoxicity [2] (Liver) and “drug-induced liver injury reported” in the data set with Hepatotoxicity [3] (Liver).
With `O=C(O)CCCc1ccc(N(CCCl)CCCl)cc1` [CHLORAMBUCIL], the Hepatotoxicity result with Hepatotoxicity [1] was “drug-induced liver injury reported”; in the data set with Hepatotoxicity [2], “no drug-induced liver injury reported”; in the data set with Hepatotoxicity [3] it was “drug-induced liver injury reported”.
As for `Cc1ccc(S(=O)(=O)[N-]Cl)cc1.[Na+]` [CHLORAMINE-T ANHYDROUS], the Hepatotoxicity result in the data set with Hepatotoxicity [1] is “no drug-induced liver injury reported”; in the data set on Hepatotoxicity [2] it was “drug-induced liver injury reported”; in the data set on Hepatotoxicity [3] it was “drug-induced liver injury reported”.
`O=C(N[C@H](CO)[C@H](O)c1ccc([N+](=O)[O-])cc1)C(Cl)Cl` [CHLORAMPHENICOL]: the Hepatotoxicity entry in the data set with Hepatotoxicity [1] was “drug-induced liver injury reported”; with Hepatotoxicity [2] it was “no drug-induced liver injury reported”; with Hepatotoxicity [3] it was “drug-induced liver injury reported”.
